According to the CombiSolv-Exp solvation set (Vermeire and Green 2021):

Test: solvent given as SMILES

O=[N+]([O-])c1cc(Cl)ccc1Cl
Details	solvation free energy, 298 K [kcal/mol]
in C1CCCCC1	-8.11
in CC1CCCCC1	-8.06
in CC#N	-9.34
in CC(C)CC(C)(C)C	-7.63
in CC(C)CCO	-8.13
in CC(C)CO	-8.01
in CC(C)O	-8.07
in CCC(C)O	-7.92
in CCCCCC	-7.77
in CCCCCCC	-7.77
in CCCCCCCC	-7.75
in CCCCCCCCCC	-7.74
in CCCCCCCCCCCC	-7.71
in CCCCCCCCCO	-8.13
in CCCCCCCCO	-8.18
in CCCCCCCO	-8.19
in CCCCCCO	-8.22
in CCCCCO	-8.23
in CCCCO	-8.23
in CCCO	-8.23
in CCO	-8.32
in COC(C)=O	-9.35
in Cc1cccc(C)c1	-9.25
in Cc1ccccc1	-9.28

COC(=O)c1ccc([N+](=O)[O-])cc1
Details	solvation free energy, 298 K [kcal/mol]
in CN(C)C=O	-10.8
in O	-6.76

C=CCC(C)(C)C
Details	solvation free energy, 298 K [kcal/mol]
in C=CCCCCCCCCCCCCCC	-3.59
in O	1.53

C1=CCCCCC1
Details	solvation free energy, 298 K [kcal/mol]
in CN1CCCC1=O	-4.22
in CN(C)C=O	-4.23
in O	0.7

C1CCNCC1
Details	solvation free energy, 298 K [kcal/mol]
in C1CCOC1	-5.22
in C1COCCO1	-4.95
in COC(C)(C)C	-4.87
in O	-5.11

Clc1ccc(Cl)c(-c2cc(Cl)ccc2Cl)c1
Details	solvation free energy, 298 K [kcal/mol]
in CCCCCCCCO	-11.2
in O	-2.55

CCC=CCC=CCC=CCCCCCCCC(=O)OC
Details	solvation free energy, 298 K [kcal/mol]
in O	-3.47

CCOc1ccccc1
Details	solvation free energy, 298 K [kcal/mol]
in CCCCCC	-6.02
in O	-2.22

Oc1ccc(O)cc1
Details	solvation free energy, 298 K [kcal/mol]
in CCCCCC	-6.25
in CCCCCCCC	-6.58
in CCCCOC(C)=O	-12.2
in CCOC(C)=O	-12.3
in Cc1ccc(C)cc1	-8.81
in Cc1cccc(C)c1	-8.88
in Cc1ccccc1C	-8.88
in O	-12.1

Cc1cc(C)cc(O)c1
Details	solvation free energy, 298 K [kcal/mol]
in CC(C)CC(C)(C)C	-6.48
in CCCCCC	-6.77
in CCCCCCC	-6.71
in CCCCCCCC	-6.69
in O	-6.28

C=CCC
Details	solvation free energy, 298 K [kcal/mol]
in C1CCCCC1	-2.47
in CC#N	-1.86
in CC(C)(C)O	-2.03
in CC(C)CC(C)(C)C	-2.26
in CC(C)CCO	-1.99
in CC(C)CO	-1.98
in CC(C)O	-1.98
in CCC(C)(C)O	-2.1
in CCC(C)CO	-1.98
in CCC(C)O	-1.99
in CCC(O)CC	-2.01
in CCCC(C)O	-2.01
in CCCCC	-2.53
in CCCCCC	-2.49
in CCCCCCC	-2.48
in CCCCCCCC	-2.45
in CCCCCCCCC	-2.43
in CCCCCCCCCC	-2.42
in CCCCCO	-2.01
in CCCCO	-2.01
in CCCO	-2.01
in CN(C)C=O	-1.78
in CO	-1.83
in COC(C)=O	-2.21
in Cc1ccc(C)cc1	-2.33
in Cc1cccc(C)c1	-2.3
in Cc1ccccc1C	-2.31
in ClC(Cl)(Cl)Cl	-2.5
in O	1.36
in O=CN1CCOCC1	-1.28

FC(Cl)(Cl)C(F)(Cl)Cl
Details	solvation free energy, 298 K [kcal/mol]
in C1CCOC1	-4.82
in C1COCCO1	-4.46
in CC(C)=O	-4.45
in CCCCCC	-4.43
in CCCCCCC	-3.98
in CCCO	-3.64
in CCOC(C)=O	-4.62
in COC(C)(C)C	-4.68
in O	0.87

CCCCCCCCCCCCCCCCCCCCCCCC
Details	solvation free energy, 298 K [kcal/mol]
in CC(=O)N(C)C	-16.4
in CC(C)(C)O	-14.6
in CC(C)O	-13.6
in CCC(C)=O	-14.8
in CCCCCCCCCCO	-15.2
in CCCCCCO	-14.2
in CCCCCO	-14.1
in CCCCO	-13.9
in CCCCOC(C)=O	-15.4
in CCCO	-13.8
in CCO	-13.4
in CN(C)C=O	-16.4
in CO	-12.3
in COC(C)(C)C	-16.3
in ClCCl	-16
in O	5.24

CCCCCCCCCCCCCCCCCCCCC
Details	solvation free energy, 298 K [kcal/mol]
in CC(=O)N(C)C	-14.3
in CC(C)(C)O	-12.9
in CN(C)C=O	-14.4
in O	4.71

CCCCC(O)CC (stereo not given)
Details	solvation free energy, 298 K [kcal/mol]
in O	-3.94

CCCCOC(=O)c1ccccc1O
Details	solvation free energy, 298 K [kcal/mol]
in O	-3.51

CCCC(=O)OCC
Details	solvation free energy, 298 K [kcal/mol]
in CCCCCCCC	-4.69
in CCCCCCCCCCCCCCCC	-4.54
in CCCCCCCCO	-4.86
in CN1CCCC1=O	-4.9
in O	-2.52
in O=CN1CCOCC1	-4.61
in [2H]O[2H]	-2.59

c1cc2c3c(cccc3c1)CC2
Details	solvation free energy, 298 K [kcal/mol]
in C1CCOC1	-9.86
in C1COCCO1	-9.66
in CC(C)(C)O	-8.39
in CC(C)CC(C)(C)C	-8.67
in CC(C)CC(C)O	-8.46
in CC(C)CCCC(C)CCO	-8.69
in CC(C)CCO	-8.43
in CC(C)CO	-8.4
in CC(C)O	-8.38
in CC(C)OC(C)C	-9.11
in CCC(C)(C)O	-8.61
in CCC(C)O	-8.46
in CCCC(C)CO	-8.55
in CCCC(C)O	-8.52
in CCCCC(CC)CO	-8.66
in CCCCCC	-8.86
in CCCCCCC	-8.89
in CCCCCCCC	-8.9
in CCCCCCCCC=CCCCCCCCC(=O)OCC(COC(=O)CCCCCCCC=CCCCCCCCC)OC(=O)CCCCCCCC=CCCCCCCCC	-9.22
in CCCCCCCCCC	-8.88
in CCCCCCCCCCO	-8.8
in CCCCCCCCO	-8.61
in CCCCCCCO	-8.75
in CCCCCCO	-8.72
in CCCCCO	-8.68
in CCCCO	-8.6
in CCCCOC(C)=O	-9.43
in CCCCOCCCC	-9.18
in CCCO	-8.53
in CCO	-8.4
in CCOC(C)=O	-9.44
in CCOCC	-9.37
in CNC=O	-8.5
in CO	-8.21
in COC(C)(C)C	-9.25
in COC(C)=O	-9.32
in Cc1ccc(C)cc1	-9.57
in Cc1ccccc1C	-9.78
in ClC(Cl)(Cl)Cl	-9.63
in ClC(Cl)Cl	-9.84
in ClCCCl	-9.78
in O	-3.18

CCCCCBr
Details	solvation free energy, 298 K [kcal/mol]
in O	-0.1

Cc1cc(NS(=O)(=O)c2ccc(N)cc2)no1
Details	solvation free energy, 298 K [kcal/mol]
in O	-17.8

[2H][2H]
Details	solvation free energy, 298 K [kcal/mol]
in Brc1ccccc1	1.76
in C1CCOC1	1.47
in C1COCCO1	1.72
in CC(C)(C)O	1.46
in CC(C)CC(C)(C)C	1.27
in CC(C)CO	1.53
in CCC(C)O	1.54
in CCCCCCC	1.27
in CCCCCCCC	1.34
in CCCCO	1.53
in Clc1ccccc1	1.65
in O	2.36
in O=C1CCCC1	1.7
in O=C1CCCCC1	1.73

CC1=C(C)C2CCC1C2
Details	solvation free energy, 298 K [kcal/mol]
in O	0.53

O=Cc1ccccc1O
Details	solvation free energy, 298 K [kcal/mol]
in O	-4.71

CCCN(CCC)c1c([N+](=O)[O-])cc(S(C)(=O)=O)cc1[N+](=O)[O-]
Details	solvation free energy, 298 K [kcal/mol]
in O	-7.98

CC(=O)OCC1=CCC2CC1C2(C)C (stereo not given)
Details	solvation free energy, 298 K [kcal/mol]
in O	-3.6

N#Cc1ccc(O)cc1
Details	solvation free energy, 298 K [kcal/mol]
in O	-10.2

CCCCCCCCCC(=O)OC
Details	solvation free energy, 298 K [kcal/mol]
in O	-1.91

CCF
Details	solvation free energy, 298 K [kcal/mol]
in C1CCOC1	-1.79
in CCCCCCC	-1.45
in CN1CCCC1=O	-1.86
in CN(C)C=O	-1.95
in O	0.41
